Each structure is given as a SMILES string. ≈ marks a conversion by molar mass, not a printed value. Counter-ions that a name gives are not always drawn.

Data set [1] is described as follows: Phase-solubility study of dexamethasone with RMβCD or γCD. The settings on record: for Phase-solubility diagram type: room temperature. In kind it is physicochemical. As for the experimental part: Phase-solubility study was performed to determine the exact amount of RMβCD needed to solubilize dexamethasone in the eye drop medium. An excess amount of dexamethasone was added to aqueous solution containing from 0 to 25% (w/v) RMβCD, benzalkonium chloride (0.02% w/v), EDTA (0.1% w/v), NaCl (0.00 to 0.72% w/v) and HPMC (0.1%). […] The suspensions were allowed to cool to room temperature (22-23° C.) and equilibrate for 7 days. After equilibrium was attained, the suspension was filtered through a 0.45 μm membrane filter, diluted and analyzed by HPLC. […] The phase-solubility was determined to be of AL-type and thus dexamethasone appears to form 1:1 dexamethasone/RMβCD complex in the aqueous eye drop formulation.
Phase-solubility study was performed to determine the exact amount of γCD needed to solubilize dexamethasone. An excess amount of dexamethasone was added to aqueous solution or suspension containing from 0 to 10% (w/v) γCD. […] The suspensions were allowed to cool to room temperature (22-23° C.) and equilibrate for 7 days. After equilibrium was attained, the suspension was filtered through a 0.45 μm membrane filter, and the filtrate diluted and analyzed by HPLC.

Data set [2] in a line: Eye drop formulation properties (osmolarity, viscosity, dissolved dexamethasone). As to conditions: aqueous eye drop suspension with γ-cyclodextrin, aqueous with cosolvent or surfactant or cyclodextrin, thermodynamic from solid; eye drop formulation of EXPERIMENT 4. Type of data set: physicochemical.
Data set [3] in a line: physchem. The settings on record: aqueous cyclodextrin solution, 22.5 °C, aqueous with cosolvent or surfactant or cyclodextrin, thermodynamic from solid.
Data set [4] relates to rabbit eye. Kind of data set: Ocular irritation in rabbits following powder administration. In kind it is in vivo. The settings on record: for Bulbar redness (points) / Discharge (points): drug eye, pure powder, median (range), 0-3 points. As to the method: Timolol maleate powder was administered to one eye of each rabbit and the other eye was used as control. Both pure timolol maleate powder and freeze-dried with PVP-polymer (2.4% of mass) were tested in 1.0 mg (n=3) and 0.1 mg (n=6) doses. Additionally, four rabbits received 0.1 mg of the pure powder 3 times a day for 8 days. Redness of bulbar conjunctivae and the amount of discharge were rated from photographs (0-3 points, randomized and masked evaluation). Slitlamp examination was also performed. Hematoxylin-eosin (H&E) stained sections of eyes were examined with a light microscope following the 8 days experiment.

A short description of data set [5]: Solubility of drugs in pure aqueous cyclodextrin solutions at room temperature (Experiment 6). The settings on record: 22-23° C.

For orientation: solubility means the dissolved amount per volume that the medium holds. Regarding `C[C@@H]1C[C@H]2[C@@H]3CCC4=CC(=O)C=C[C@]4(C)[C@@]3(F)[C@@H](O)C[C@]2(C)[C@@]1(O)C(=O)CO` [Dexamethasone], the Phase-solubility diagram type result in data set [1] (aqueous RMβCD (0-25% w/v) eye drop solutions) was “AL-type”; in data set [1] (γCD 0 to 10% (w/v) in pure water), “BS-type”. Besides, the solubility at 7 days in data set [1] (aqueous γ-cyclodextrin solution/suspension, 22.5 °C, aqueous with cosolvent or surfactant or cyclodextrin, thermodynamic from solid, pure water containing γ-cyclodextrin, at 5% (w/v) γCD concentration, read-out: Maximum dexamethasone solubility) is 5300 µg/mL (≈ 13.5 mM); in data set [2], 700 to 900 µg/mL (≈ 1.78 to 2.29 mM). Moreover, the solubility in data set [3] came to 3000 µg/mL (≈ 7.64 mM).

Take `CC(C)(C)NC[C@H](O)COc1nsnc1N1CCOCC1` [Timolol maleate powder, Timolol maleate]: in data set [4] (0.1 mg), the Ocular irritation entry is on record as “negligible ocular irritation”. Besides, the “Slitlamp examination, surface photographs and histology, drug versus control eyes” value in data set [4] (0.1 mg 3 times a day for 8 days) is “negligible difference between drug and control eyes”. Moreover, in data set [4] (1.0 mg and 0.1 mg doses), the Signs of irritation result is given as “No serious or irreversible signs of irritation”. In addition, the “Bulbar redness (points)” value is reported as 0.8 (0.0-1.5) points in data set [4] (0.1 mg × 24 (8 days, n = 4)); 1.5 (1.0-2.0) points in data set [4] (1 hr. after 0.1 mg (n = 6)); 1.0 (1.0-1.5) points in data set [4] (1 hr. after 1.0 mg (n = 3)); 1.0 (0.0-2.0) points in data set [4] (24 hr. after 0.1 mg (n = 6)); 1.0 (1.0-1.0) points in data set [4] (24 hr. after 1.0 mg (n = 3)). Also, the “Discharge (points)” value in data set [4] (0.1 mg × 24 (8 days, n = 4)) was 0.0 (0.0-0.5) points; in data set [4] (1 hr. after 0.1 mg (n = 6)), 0.0 (0.0-1.5) points; in data set [4] (1 hr. after 1.0 mg (n = 3)), 1.0 (0.0-2.0) points; in data set [4] (24 hr. after 0.1 mg (n = 6)) it was 0.0 (0.0-0.0) points; in data set [4] (24 hr. after 1.0 mg (n = 3)), 0.3 (0.0-0.8) points.

In the case of `CC1(C)O[C@@H]2C[C@H]3[C@@H]4CCC5=CC(=O)C=C[C@]5(C)[C@@]4(F)[C@@H](O)C[C@]3(C)[C@]2(C(=O)CO)O1` [Triamcinolone acetonide], the solubility in data set [3] is 1100 µg/mL (≈ 2.53 mM). For the same compound, the “Drug solubility in aqueous randomly methylated β-cyclodextrin” value in data set [5] (Randomly methylated β-cyclodextrin 5% w/v) was 2000 µg/mL. In data set [5] (γ-cyclodextrin 5% w/v), the “Drug solubility in aqueous γ-cyclodextrin” value is 4400 µg/mL.

Source of the values: patent publication US8999953B2, “Cyclodextrin nanotechnology for ophthalmic drug delivery” (Oculis EHF, priority 2005, dated 2015).
